Results as given in US20260015352A1, “METHYLTRANSFERASE INHIBITOR AND USE THEREOF” (CYTOSINLAB THERAPEUTICS CO., LTD., priority 2022, published 2026).

System: G401 cells
Test: G401 ELISA test
Assay type: cell-based
Settings: Homo sapiens, G-401; G401 cells treated with compounds for 72 hours; ELISA detecting K27 and H3; read-out: G401_ELISA IC50
Description: • Plate Reader: Envision (Perkinelmner); plate shaker: IKA MTS 2/4; plate Washer: BioTek microplate wisher 405 select; Cell counter: Counterstar (Ruiyu-biotech); Cell culture incubator: MCO-15AC (ThermoFisher); Pipette: BioHit Multichannel. Pipette: 0.2-10 μL, 10-300 μL, 50-1200 μL; Centrifuge: Thermo Centrifuge ST 40R; Pure water system: Millipore Milli-Q Reference system; Refrigerator: Haier −80 degree, −20 degree, and 4-degree refrigerators; cell cryopreservation box: Mr. Frosty™ Gradient Cooling Box Cat #5100-0001
• McCoys 5A (Modified) culture medium (ATCC); FBS (Gibco); 0.25% Trypsin/EDTA (Gibco); PBS (Hyclone); Penicillin/Streptomycin(100×) (Gibco); DMSO (Sigma); 384 cell culture plate (Corning); 384 detection plate (Greiner); 96 well plate (compound dilution) (Haimen, Qunchao); T75 Cell Culture Bottle (Corning)
G401 cells were seeded in a 384-well cell culture plate and incubated overnight at 37° C. in a 5% CO2 cell culture incubator, after which the cells were treated with compounds of different concentrations for 72 hours. The 384-well cell culture plate was taken out and upside down in a centrifuge to centrifugeat 300 rpm for 1 minute. After centrifugation, the 384-well cell culture plate was washed twice with PBS, added with lysis solution and lysed for 60 minutes. Then neutralization buffer was added for mixing and incubation was continued for 30 minutes. 20 ul (for detecting K27) and 10 ul (for detecting H3) of cell lysate were extracted from the 384-well cell culture plate and transferred to a 384 ELISA detection plate and incubate overnight at 4° C. The next day, the 384 ELISA plate was taken out and washed 5 times with TBST in a microplate washer. Then, the plate was added with a blocking solution and sealed at room temperature for 1 hour. The blocking solution was discarded and the primary antibody was added and then the plate was incubated at room temperature for 1 hour. After incubation, the plate was washed with TBST 5 times in a microplate washer, then added with secondary antibody and incubated at room temperature for 1 hour. After incubation, the plate was washed with TBST 5 times in a microplate washer, and finally added with color developer for color development. The plate was read with Envision plate reader. The obtained data was converted into inhibition rate using the following calculation method: % Inhibition rate=100−100*(compound absorbance−positive control absorbance)/(negative control absorbance−positive control absorbance), and then the inhibition rate data was subjected to curve fitting using the “logarithmic (inhibitor) and reaction-variable slope (four parameters)” model in GraphPad Prism 5 software.
The inhibition rate of the compound was calculated as follows: […]
The compounds of the present invention were tested according to the above experimental method, and some results were shown in Table 3. The test results were classified by A, B, and C, wherein A represents IC50≤0.1 uM; B represents 0.1 uM<IC50≤1 uM; C represents IC50>1 uM

SMILES | IC50
COc1nccc2ccc(Nc3ccc([C@H](C)Nc4ncc(CNCC5CC(F)(F)C5)cn4)cc3F)nc12 [PA240] | 100 to 1000 nM
COc1nccc2ccc(Nc3ccc(CNc4ncc(CNCC5CCOCC5)cn4)cc3F)nc12 [PA252] | > 1000 nM
COc1nccc2ccc(Nc3ccc(CNc4ncc(NCc5cnoc5)cn4)cc3F)nc12 [PA208] | 100 to 1000 nM
COc1nccc2ccc(Nc3ccc([C@H](C)Nc4ncc(CC(=O)NC5CCCC5OC)cn4)cc3F)nc12 (stereo partly drawn) [PA222] | 100 to 1000 nM
COc1nccc2ccc(Nc3ccc([C@H](C)Nc4ncc(CNC5CC(F)(F)C5)cn4)cc3F)nc12 [PA201] | ≤ 100 nM
COc1nccc2ccc(NC34CCC(CNc5ncc(CC(=O)NC6COC6)cn5)(CC3)OC4)nc12 [PA229] | 100 to 1000 nM
COc1nccc2ccc(NC34CCC(C(C)Nc5ncc(CC(=O)NC6COC6)cn5)(CC3)CC4)nc12 (stereo not drawn) [PA180] | ≤ 100 nM
COc1nccc2ccc(Nc3ccc([C@H](C)Nc4ncc(CC(=O)NC5COC5)cn4)cc3F)nc12 [PA193] | ≤ 100 nM
COc1nccc2ccc(Nc3ccc([C@H](C)Nc4ncc(/C=C/C5CCS(=O)(=O)CC5)cn4)cc3F)nc12 [PA210] | 100 to 1000 nM
CC(C(=O)NC1COC1)c1cnc(N[C@@H](C)C23CCC(Nc4ccc5ccnc(Cl)c5n4)(CC2)CC3)nc1 (stereo partly drawn) [PA169, 2-(2-(((S)-1-(4-((8-chloro-1,7-naphthyridin-2-yl)amino)bicyclo[2.2.2]octan-1-yl)ethyl)amino)pyrimidin-5-yl)-N-(oxetan-3-yl)propanamide] | ≤ 100 nM
O=C(Cc1cnc(NCc2ccc(Nc3ccc4ccncc4n3)cc2)nc1)NC1COC1 [PA048] | > 1000 nM
COc1nccc2ccc(Nc3ccc([C@H](C)Nc4ccc(CC(=O)NC5COC5)cn4)cc3F)nc12 [PA233] | 100 to 1000 nM
COc1nccc2ccc(Nc3ccc(CNc4ncc([C@@H](C)C(=O)NC5COC5)cn4)cc3)nc12 (single isomer, unassigned) [PA043, 2-[2-[[4-[(8-methoxy-1,7-naphthyridin-2-yl)amino]phenyl]methylamino]pyrimidin-5-yl]-N-(oxetan-3-yl) propanamide] | 100 to 1000 nM
COc1nccc2ccc(Nc3ccc(CNc4ncc(CC(N)=O)cn4)cc3F)nc12 [PA231] | 100 to 1000 nM
COc1nccc2ccc(Nc3ccc([C@H](C)Nc4ncc(N(C)C(=O)NC5COC5)cn4)cc3F)nc12 [PA217] | 100 to 1000 nM
COc1nccc2ccc(Nc3ccc(CNc4ncc(N5CCC(OC)C5)cn4)cc3F)nc12 (stereo not drawn) [PA244] | > 1000 nM
COc1nccc2ccc(Nc3ccc([C@H](C)Nc4ncc(C(C)NC5CS(=O)(=O)C5)cn4)cc3F)nc12 (stereo partly drawn) [PA163] | ≤ 100 nM
COc1nccc2ccc(Nc3ccc(CNc4ncc(CC(=O)N5CCC56COC6)cn4)cc3F)nc12 [PA215] | 100 to 1000 nM
COc1nccc2ccc(Nc3ccc(CNc4ncc(CNCC5CCOC5)cn4)cc3F)nc12 (stereo not drawn) [PA220] | 100 to 1000 nM
COc1nccc2ccc(Nc3ccc([C@H](C)Nc4ncc(CC(=O)NC5CC(F)(F)C5)cn4)cc3F)nc12 [PA216] | 100 to 1000 nM

SMILES | IC50
CC(C(=O)NC1COC1)c1cnc(NCc2ccc(Nc3ccc4ccnc(Cl)c4n3)cc2)nc1 (stereo not drawn) [PA044] | 100 to 1000 nM
COc1nccc2ccc(Nc3ccc(C(CO)Nc4ncc(CC(=O)NC5COC5)cn4)cc3F)nc12 (stereo not drawn) [PA236] | 100 to 1000 nM
COc1nccc2ccc(Nc3ccc(CNc4ncc(CNCc5ccno5)cn4)cc3F)nc12 [PA258] | ≤ 100 nM
COc1nccc2ccc(NC34CCC(CNc5ncc([C@H](C)C(=O)NC6COC6)cn5)(CC3)CC4)nc12 [PA078] | 100 to 1000 nM
COc1nccc2ccc(Nc3ccc([C@H](C)Nc4ncc(CCNC5CC(F)(F)C5)cn4)cc3F)nc12 [PA223] | 100 to 1000 nM
COc1nccc2ccc(NC34CCC(CNc5ncc(CC(=O)NC6COC6)cn5)(CC3)CC4)nc12 [PA079] | ≤ 100 nM
C[C@H](Nc1ncc(CNCc2cnoc2)cn1)C12CCC(Nc3ccc4ccnc(Cl)c4n3)(CC1)CC2 [PA188] | ≤ 100 nM
COc1nccc2ccc(Nc3ccc(CNc4ncc(CNCc5ccon5)cn4)cc3F)nc12 [PA221] | 100 to 1000 nM
COc1nccc2ccc(Nc3ccc(CNc4ncc(CNCc5cnco5)cn4)cc3F)nc12 [PA203] | ≤ 100 nM
COc1nccc2ccc(Nc3ccc(CNc4ccc(CC(=O)NC5COC5)cc4)cc3)nc12 [PA081] | 100 to 1000 nM
COc1nccc2ccc(Nc3ccc([C@H](CO)Nc4ncc(CC(=O)NC5COC5)cn4)cc3F)nc12 [PA218] | 100 to 1000 nM
COc1cccc2ccc(Nc3ccc(CNc4ncc(CC(=O)NC5COC5)cn4)cc3F)nc12 [PA197] | ≤ 100 nM
COc1nccc2ccc(Nc3ccc([C@H](C)Nc4ncc(CCc5cc(C(N)=O)n[nH]5)cn4)cc3F)nc12 [PA245] | > 1000 nM
O=C(Cc1cnc(NCC23CC(Nc4ccc5ccnc(Cl)c5n4)(C2)C3)nc1)NC1COC1 [PA069] | > 1000 nM
COCCNCc1cnc(NCc2ccc(Nc3ccc4ccnc(OC)c4n3)c(F)c2)nc1 [PA247] | > 1000 nM
Cc1ccc2ccc(NC34CCC([C@H](C)Nc5ncc(CNC6CS(=O)(=O)C6)cn5)(CC3)CC4)nc2c1Cl [PA179] | ≤ 100 nM
CC(C(=O)N(CCC#N)C1COC1)c1cnc(N[C@@H](C)C23CCC(Nc4ccc5ccnc(Cl)c5n4)(CC2)CC3)nc1 (stereo partly drawn) [PA177] | ≤ 100 nM
COc1nccc2ccc(Nc3ccc(CNc4ncc(CN5CCS(=O)(=O)CC5)cn4)cc3F)nc12 [PA259] | ≤ 100 nM
COc1nccc2ccc(Nc3ccc(CNc4ncc(CNC5COC5)cn4)cc3)nc12 [PA154] | 100 to 1000 nM
COc1nccc2ccc(Nc3ccc([C@H](C)Nc4ncc(C(C)C5CCS(=O)(=O)CC5)cn4)cc3F)nc12 (stereo partly drawn) [PA262] | ≤ 100 nM

SMILES | IC50
C[C@H](Nc1ncc(CC(=O)NC2COC2)cn1)C12CCC(Nc3ccc4ccnc(Cl)c4n3)(CC1)CC2 [PA176] | ≤ 100 nM
C[C@H](Nc1ncc(C(NC2CS(=O)(=O)C2)C(=O)OC(C)(C)C)cn1)C12CCC(Nc3ccc4ccnc(Cl)c4n3)(CC1)CC2 (stereo partly drawn) [PA257] | ≤ 100 nM
COc1nccc2ccc(Nc3ccc([C@H](C)Nc4ncc(CC(=O)NC5CS(=O)(=O)C5)cn4)cc3F)nc12 [PA212] | 100 to 1000 nM
C[C@H](Nc1ncc(C(O)C(=O)NC2COC2)cn1)C12CCC(Nc3ccc4ccnc(Cl)c4n3)(CC1)CC2 (stereo partly drawn) [PA174] | ≤ 100 nM
COc1nccc2ccc(Nc3ccc(C(C)Nc4ncc(CC(=O)NC5COC5)cn4)cc3F)nc12 (stereo not drawn) [PA204] | ≤ 100 nM
C[C@H](Nc1ncc(CNC2CS(=O)(=O)C2)cn1)c1ccc(Nc2ccc3ccnc(Cl)c3n2)c(F)c1 (single isomer, unassigned) [PA248] | > 1000 nM
COc1nccc2ccc(Nc3ccc([C@H](C)Nc4ncc(CNC5C[S+]([O-])C5)cn4)cc3F)nc12 (stereo partly drawn) [PA175] | ≤ 100 nM
COc1nccc2ccc(Nc3ccc(CNc4ncc(CC(=O)OC(C)(C)C)cn4)cc3)nc12 [PA007] | > 1000 nM
COc1nccc2ccc(Nc3ccc([C@H](C)Nc4ncc(CNC5CC(C#N)C5)cn4)cc3F)nc12 (stereo partly drawn) [PA196] | ≤ 100 nM
COc1nccc2ccc(Nc3ccc(CNc4ncc(CNCc5cnn(C)c5)cn4)cc3F)nc12 [PA249] | > 1000 nM
COc1nccc2ccc(Nc3ccc([C@H](C)Nc4ncc(CN5CCS(=O)(=O)CC5)cn4)cc3F)nc12 [PA194] | ≤ 100 nM
CC(Nc1ncc(CC(=O)N(CCC#N)C2COC2)cn1)C12CCC(Nc3ccc4ccnc(Cl)c4n3)(CC1)CC2 (stereo not drawn) [PA171] | ≤ 100 nM
COc1nccn2cc(Nc3ccc(CNc4ncc(CC(=O)NC5COC5)cn4)cc3)nc12 [PA253] | > 1000 nM
COc1nccc2ccc(Nc3ccc(CNc4ncc(CC(=O)N5CC6(COC6)C5)cn4)cc3F)nc12 [PA251] | > 1000 nM
CCN(Cc1cnc(N[C@@H](C)c2ccc(Nc3ccc4ccc(C)c(Cl)c4n3)c(F)c2)nc1)C1CS(=O)(=O)C1 [PA267] | ≤ 100 nM
CC(C(=O)NC1COC1)c1cnc(N[C@@H](C)C23CCC(Nc4ccc5ccnc(Cl)c5n4)(CC2)CC3)nc1 (single isomer, unassigned) [PA166] | ≤ 100 nM
C[C@H](C(=O)NC1COC1)c1cnc(NCc2ccc(Nc3ccc4ccnc(Cl)c4n3)cc2)nc1 [PA054] | 100 to 1000 nM
COc1nccc2ccc(Nc3ccc([C@H](C)Nc4ncc(CNCCC#N)cn4)cc3F)nc12 [PA181] | ≤ 100 nM
O=C(Cc1cnc(NC(CO)C23CCC(Nc4ccc5ccnc(Cl)c5n4)(CC2)CC3)nc1)NC1COC1 (stereo not drawn) [PA264] | ≤ 100 nM
COc1nccc2ccc(Nc3ccc(CNc4ncc(CC(=O)N5CCC(C#N)CC5)cn4)cc3F)nc12 [PA224] | 100 to 1000 nM
